Laboratory results reported in ChEMBL document CHEMBL3244077, “Sycnthesis of quinazoline analogues of folic acid modified at postion 10” (J Med Chem, 1977).

Tests used:
L1210 [1] = test: Antitumor activity against mouse L1210 cells allografted in mouse assessed as increase in host survival at 100 mg/kg, ip administered as single dose on day 1 following tumor implantation; format: functional; settings: 24 h, route intraperitoneal
L1210 [2] = test: Antitumor activity against mouse L1210 cells allografted in mouse assessed as increase in host survival at 150 mg/kg, ip administered as single dose on day 1 following tumor implantation; format: functional; settings: 24 h, route intraperitoneal
Mus musculus = test: Acute toxicity in mouse […] with mouse L1210 cells at 150 mg/kg, ip administered as single dose on day 1 following tumor implantation; format: organism-based; design: dose 150 mg/kg, route intraperitoneal; settings: in vivo
L1210 [3] = test: Antitumor activity against mouse L1210 cells allografted in mouse assessed as increase in host survival at 75 mg/kg, ip administered as single dose on day 1 following tumor implantation; format: functional; settings: 24 h, route intraperitoneal
L1210 [4] = test: Antitumor activity against mouse L1210 cells allografted in mouse assessed as increase in host survival at 200 mg/kg, ip administered as single dose on day 1 following tumor implantation; format: functional; settings: 24 h, route intraperitoneal
L1210 [5] = test: Antitumor activity against mouse L1210 cells allografted in mouse assessed as increase in host survival at 50 mg/kg, ip administered as single dose on day 1 following tumor implantation; format: functional; settings: 24 h, route intraperitoneal
L1210 [6] = test: Antitumor activity against mouse L1210 cells allografted in mouse assessed as increase in host survival at 25 mg/kg, ip administered as single dose on day 1 following tumor implantation; format: functional; settings: 24 h, route intraperitoneal

SMILES	survival at 100 mg/kg (L1210 [1])	survival at 150 mg/kg (L1210 [2])	Activity (Mus musculus)	survival at 75 mg/kg (L1210 [3])	survival at 200 mg/kg (L1210 [4])	survival at 50 mg/kg (L1210 [5])	survival at 25 mg/kg (L1210 [6])
Nc1nc(O)c2cc(CSc3ccc(C(=O)N[C@@H](CCC(=O)O)C(=O)O)cc3)ccc2n1	9%	22%	Non-toxic				
Nc1nc(O)c2cc(COc3ccc(C(=O)N[C@@H](CCC(=O)O)C(=O)O)cc3)ccc2n1		28%	Non-toxic	6%	14%		
Nc1nc(O)c2cc(CCc3ccc(C(=O)N[C@@H](CCC(=O)O)C(=O)O)cc3)ccc2n1		23%	Non-toxic	18%		14%	
CN(Cc1cnc2nc(N)nc(N)c2n1)c1ccc(C(=O)N[C@@H](CCC(=O)O)C(=O)O)cc1 [METHOTREXATE]	81%			48%		61%	68%
